From patent US20260364072A1, “METHODS FOR PROMOTING EXPANSION OF HUMAN CD34+ CELLS IN VIVO AND FOR PROMOTING NEURAL REGENERATION” (THE REGENTS OF THE UNIVERSITY OF CALIFORNIA, priority 2023, published 2026)

Legend:
ADAR1p150 = ADAR1p150 protein by intracellular flow cytometry in high-risk MF samples; format: cell-based, human; conditions: 72 hr
Experimental: (FIG. 28C) Flow cytometry-based quantification of ADAR1 p150 protein expression in high-risk MF samples after in vitro transduction of primary CD34^+ cells with ADAR1 nanoluc-GFP reporter or vector control (pCDH) followed by treatment with vehicle control (DMSO) or Rebecsinib (72 hr).
Flow cytometry for stem and progenitor cell surface antibody staining was performed as previously described.^14 For phospho-flow, a subset of samples was fixed and permeabilized, then blocked and stained with APC-conjugated ADAR1p150 antibody (cat ab269444, 1:25) and pSTAT3 APC (cat 17-9033-42, 1:10) (Table S2). Fractions were analyzed with the BD LSR FORTESSA™ (Sanford Consortium for Regenerative Medicine Stem Cell Core) and FLOWJO™ software (TreeStar, Ashland, OR).

RNA editing = assay: Whole transcriptome RNA editing analysis of CD34+ cells from sAML50261 engrafted mice; format: in vivo, human cells in mice; conditions: mice treated with 5 or 10 mg/kg
Experimental: FIG. 30E illustrates a whole transcriptome-based RNA editing analyses of previously-described RNA-seq data^14 generated from CD34^+ cells isolated from the spleens of sAML50261 engrafted mice treated with Rebecsinib or vehicle;
For RNA editing analyses of whole transcriptome sequencing data, previous datasets were utilized from CD34^+ cells isolated from the spleens of sAML50261-engrafted mice treated once weekly with Rebecsinib in a dose-response assay (5 or 10 mg/kg),^14 along with CD34^+ cells harvested from mice that were serially transplanted with CD34+ cells from sAML50261-engrafted mice that had been treated twice weekly with Rebecsinib at 10 mg/kg (no further treatment was delivered to serial transplant recipients). Due to limiting number of cells remaining after treatment, cells were pooled from n=4 to 5 mice per condition for sequencing. RNA editing analysis was performed as previously described.^5

[1] = NHP single-dose toxicokinetic study; format: in vivo, cynomolgus monkeys
Experimental: Pre-IND PD and toxicokinetic (TK) studies (FIG. 4D) were enabled by scalable Rebecsinib synthesis^34 and development of an optimized formulation for in vivo biodistribution (5% w/v EtOH, 5% w/v Kolliphor HS15 in 0.9% Sodium Chloride). In PK studies, Rebecsinib was detectable in rat, rabbit, and non-human primate (NHP) plasma following IV bolus administration. In rat TK studies, Rebecsinib was quantifiable up to 1-hour post-dose at 1 mg/kg and up to 4 hours post-dose at 3, 5, and 8 mg/kg (FIG. 4E). […] Rebecsinib T1/2 values were 0.342, 0.447, 0.313, and 0.530 hours at 1, 3, 5, and 8 mg/kg, respectively. […] Following 3, 10, and 20 mg/kg boluses, Rebecsinib was quantifiable in plasma 1 hour post-dose and could be detected up to 8 hours post-dosing with 40 mg/kg (FIG. 4F). […] Following 3, 10, 15, and 20 mg/kg of Rebecsinib, quantifiable plasma concentrations of Rebecsinib were observed through 8 hrs post-dose (FIG. 4G).
(FIG. 29D) Schematic diagram outlining multispecies toxicokinetic (TK) and pharmacodynamic studies in mammalian species treated in vivo with a single dose of Rebecsinib. Toxicokinetic analyses were performed in rats (n=6 per sex, per group), rabbits (n=2 per sex, per group), and non-human primates (NHPs, n=1 per sex, per group) and pharmacodynamic splice isoform quantification studies were performed in peripheral blood mononuclear cells (PBMCs) from NHP.
(FIG. 29G, FIG. 29H) For in vivo TK and complementary pharmacodynamic studies, NHPs were given a single injection of Rebecsinib at 3-20 mg/kg, or vehicle control, and blood samples were drawn at regular intervals to determine plasma concentrations (FIG. 29G) of the compound along with splice isoform biomarker assays to quantify MCL1 exon skipping in PBMCs isolated from treated animals (FIG. 29H, n=2 animals per group).
(§1) Single-dose TK studies were performed in Sprague Dawley rats (Charles River Labs, South San Francisco, CA), New Zealand white rabbits (BASi/Inotiv, West Lafayette, IN), and cynomolgus monkeys (BASi/Inotiv). Rat and rabbit studies included toxicology analyses, quantification of plasma levels of Rebecsinib, and necropsies to evaluate organ integrity after treatment. For NHP studies, health and ophthalmological evaluations were performed before and after dosing with Rebecsinib, and blood samples were collected for quantification of plasma levels of Rebecsinib and biomarker studies in PBMCs from treated and control animals. All monkeys were returned to the animal colony after the end of the observation period. Toxicokinetic values including mean plasma concentrations and t1/2 values were calculated according to CRO-approved protocols (Charles River and BASi).

[2] = Multi-species (rat, rabbit, NHP) pre-IND studies; format: in vivo
Experimental: as §1, with “Single-dose TK studies were performed in Sprague Dawley rats (Charles River Labs, South San Francisco, CA), New Zealand white rabbits (BASi/Inotiv, West Lafayette, IN), and cynomolgus monkeys (BASi/Inotiv).” left out

[3] = tested on: human CD45+ADAR1-GFP+ cells and CD45+CD3+ADAR1-GFP+ cells; assay: aNBM SAK148 PDX mice, flow cytometry; format: in vivo, human cells in NSG-SGM3 mice; conditions: 10 mg/kg, IV, BIW×2
Experimental: Aged normal bone marrow (aNBM) PDX mouse models SAK148, which were established with 80-100K ADAR1-reporter transduced CD34+ cells by IV injection into NSG-SGM3 mice at the age of 5-6 weeks. When the models were ready, the mice were treated with either vehicle or rebecsinib (10 mg/kg, IV, BIW×2). The mice were sacrificed upon completion of the dosing plan, and single cells from PB, SP, and BM were collected and stained with mAbs for CD45, CD3, CD14, and CD19.

With `CC[C@H](OC)[C@@H](C)[C@H]1O[C@@H]1[C@@H](O)[C@H](C)/C=C/C=C(\C)[C@H]1OC(=O)C[C@H](O)CC[C@@](C)(O)[C@@H](OC(C)=O)/C=C/[C@@H]1C` [Rebecsinib] the ADAR1p150 protein expression (ADAR1p150) was “reduced ADAR1p150 protein expression”, the RNA editing activity (RNA editing) was “global downregulation of RNA editing activity that occurred in a dose-responsive manner” and the tolerability [1] was “favorable tolerability”. The diarrhea ([1]; 20 mg/kg, resolved within 24 hours with no treatment and no sequelae) was “one female NHP in the 20 mg/kg treatment group developed diarrhea”, the “quantifiable plasma concentrations through time post-dose” value ([1]; IV bolus, 3, 10, 15, and 20 mg/kg) was “up to 8 hrs” and the “peak (Cmax) levels, male vs female” value ([1]; IV bolus, all dose levels) was “comparable between male and females”. The “total (AUClast) levels, male vs female” value ([1]; IV bolus, all dose levels) was “comparable between male and females”, the half-life ([1]; cynomolgus monkey, plasma, IV bolus, read-out: half-life (t1/2)) was 37.2 to 66 min and the systemic toxicity [2] was “no evidence of systemic toxicity”. For the same compound, the bioavailability and stability ([2]; clinically tractable formulation) was “favorable bioavailability and stability”, the “tolerability in rat, rabbit, NHP” value ([2]; pre-IND studies) was “well tolerated” and the splicing modulation ([2]; rat, rabbit, NHP) was “dose-dependent increases in splicing modulation”. For the same compound, the “CD45+CD3+GFP+ cells in PB, SP, and BM” value [3] was “spares the cell populations” and the “CD45+GFP+ cells in PB, SP, and BM” value [3] was “spares the cell populations”.
